Assay results taken from US20130109581A1, “POSITIVELY CHARGED SPECIES AS BINDING REAGENTS IN THE SEPARATION OF PROTEIN AGGREGATES FROM MONOMERS” (priority 2009, published 2013).

Target: T1, oligomeric beta amyloid 1-42 (globulomer) (Homo sapiens, UniProt P05067)
T1 construct: beta amyloid (1-42) was monomerized with incubation in hexafluoroisopropanol
Experiment: Misfolded Protein Assay: capture of globulomer spiked into CSF (Example 2)
Assay type: binding
Experimental: To assess the ability of these reagents to capture protein aggregates, the previously described Misfolded Protein Assay or MPA (Lau et al., 2007, PNAS, 104: 11551) was used (FIG. 3). In this assay, the capture reagent of interest is attached to beads which are incubated with a sample of interest containing a mixture of normal monomeric and aggregated proteins to allow for capture and then washed to remove unbound material. After this enrichment step, an elution buffer is used to dissociate the captured material from the beads as well as to denature any aggregates. The eluted material is then applied to a sandwich ELISA that is specific for the protein of interest. Strong aggregate-binding reagents acting as effective capture reagents show a high signal from the sample containing a mixture of monomers and aggregates, but not from the control sample, which contains only physiologic levels of monomeric protein.
Beads displaying carboxylic acids were treated with EDC and BMPH to create maleimide-displaying beads, to which thiolated peptides (or other thiolated organic molecules) were added through a Michael addition reaction. Dynal M270 magnetized beads (30 mg/mL bead) displaying carboxylic acids were vortexed and placed into a 15 ml falcon tube. The tube was placed into a magnet, and the supernatant removed. The beads were washed 2 times with 0.1 M MES buffer, pH 5, and then the washing buffer was removed. The coupling solution (33 mM BMPH, 130 mM EDC in MES buffer) was added, and the tube was rocked for 30 minutes at room temperature. After washing in 1×MES, 1× Tris, pH 7.5, the beads were quenched with Tris buffer (50 mM Tris buffer, pH 7.5) for 15 minutes. The beads were then washed 2 times in phosphate buffer and added to 5 mM thiolated ligand in degassed phosphate. The beads were rotated for 21 hours, then washed in 0.1 M phosphate buffer, pH 7, 1×PBS, and stored.
To prepare the globulomer, beta amyloid (1-42) was monomerized with incubation in hexafluoroisopropanol. The hexafluoroisopropanol was removed by vacuum centrifugation. DMSO, PBS, and 2% SDS were then added to the sample. The sample was vortexed and sonicated and then incubated at 37° C. After 6 hours, the sample was diluted with water, vortexed, and incubated at 37° C. for an additional 19 hours. The sample was ultracentrifuged at 135000×g for 1 hour at 4° C., and the supernatant retained. The globulomers were spiked into CSF for the assay.
Aliquots of beads conjugated to various reagents were added to wells of a 96-well plate. Globulomer-spiked CSF in a Tris buffer was added to each well, and the plates were incubated for 1 hour at 37° C. with shaking. For the negative control, normal CSF was used, which is considered to contain only monomers of beta amyloid. The beads were washed with TBST wash buffer, and bound materials were eluted with a denaturing solution (typically 0.1-0.15 N NaOH). A reconditioning buffer was added to the eluate prior to beta amyloid detection via a beta amyloid (1-42) specific sandwich ELISA.
In order to determine the amount of ligand loading, amine quanitation was used. Aliquots of beads were placed in a magnet, and the supernatant removed. 80% phenol in ethanol, 0.2 mM KCN in pyridine/water, and 6% ninhydrin in ethanol was added to each tube. The aliquots were vortexed and heated for 7 minutes at 100° C. After cooling to room temperature, 60% ethanol was added. The tubes were placed in a magnet, and the absorbance of the supernatant at 570 nm was determined. The loading of the beads was determined according to Beer's law, using the extinction coefficient of 15000 M-1 cm-1.
Beads (3 ul or 15 ul) were added to samples containing 0.5 ng/mL globulomer spiked into CSF. […] For PSR1, this limit was ˜5 nmol ligand/mg bead for binding preferentially to globulomer. […]

T1 sequence (P05067 672-713 limits assumed): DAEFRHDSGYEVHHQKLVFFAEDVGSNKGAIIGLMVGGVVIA

Substance: Nab-Nab-Nab-Nbn-Nab-Nbn [PSR1]
- minimum density required for oligomer capture (0.5 ng/mL globulomer in CSF, assuming all amines protonated at pH 7.4): roughly 6000 nmol positive charges/m^2
- minimum density required for oligomer capture (0.5 ng/mL globulomer in CSF, from 2-5 m^2 surface area per gram bead): approximately 1500 nmol ligand/m^2
- minimum density required for oligomer capture (0.5 ng/mL globulomer spiked into CSF, 3 ul or 15 ul beads): ~5 nmol ligand/mg bead
- capture of oligomers (relative light units from the Abeta ELISA) (globulomer-spiked CSF vs normal CSF, reagent on Dynal M270 beads): capable of enriching oligomers
- sensitivity and specificity for globulomers (native vs denatured globulomer in CSF, directly conjugated beads vs streptavidin beads with biotin-PSR1): higher sensitivity and specificity for globulomers
